Paper PMC9597875 (Frontiers in Pharmacology, 2022)

Key:
CYP2D6 [1] = target: T1, CYP2D6 (Homo sapiens, UniProt P10635); details: HLM; as compared to quinidine
CYP3A4 = CYP3A4 (Homo sapiens, UniProt P08684); test: CYP3A4 activity inhibition assay in human liver microsomes (testosterone 6β-hydroxylation, LC-MS/MS)
CYP2D6 [2] = target: T1, CYP2D6; test: biochemical
CYP2C8 = target: T2, CYP2C8 (Homo sapiens, UniProt P10632); test: CYP2C8 activity inhibition assay in human liver microsomes (paclitaxel hydroxylation, LC-MS/MS); details: for IC50: IC50 CYP2C8, HLM, paclitaxel 5 µM
T2 sequence (P10632 1-490): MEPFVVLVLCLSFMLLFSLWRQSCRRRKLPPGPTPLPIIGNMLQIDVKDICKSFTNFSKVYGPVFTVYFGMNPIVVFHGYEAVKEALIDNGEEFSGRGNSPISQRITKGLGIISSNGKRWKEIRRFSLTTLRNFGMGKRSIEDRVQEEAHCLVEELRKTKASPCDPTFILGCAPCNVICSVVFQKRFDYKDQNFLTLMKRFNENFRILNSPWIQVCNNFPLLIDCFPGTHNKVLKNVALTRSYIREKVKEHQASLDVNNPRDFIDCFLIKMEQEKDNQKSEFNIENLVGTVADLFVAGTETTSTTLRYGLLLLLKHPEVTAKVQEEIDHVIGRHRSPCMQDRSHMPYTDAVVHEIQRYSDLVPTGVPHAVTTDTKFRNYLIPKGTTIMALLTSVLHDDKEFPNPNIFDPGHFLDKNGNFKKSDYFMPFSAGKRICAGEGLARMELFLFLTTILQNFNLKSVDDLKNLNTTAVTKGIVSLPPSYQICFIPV

CYP3A4, sequence (P08684 whole entry): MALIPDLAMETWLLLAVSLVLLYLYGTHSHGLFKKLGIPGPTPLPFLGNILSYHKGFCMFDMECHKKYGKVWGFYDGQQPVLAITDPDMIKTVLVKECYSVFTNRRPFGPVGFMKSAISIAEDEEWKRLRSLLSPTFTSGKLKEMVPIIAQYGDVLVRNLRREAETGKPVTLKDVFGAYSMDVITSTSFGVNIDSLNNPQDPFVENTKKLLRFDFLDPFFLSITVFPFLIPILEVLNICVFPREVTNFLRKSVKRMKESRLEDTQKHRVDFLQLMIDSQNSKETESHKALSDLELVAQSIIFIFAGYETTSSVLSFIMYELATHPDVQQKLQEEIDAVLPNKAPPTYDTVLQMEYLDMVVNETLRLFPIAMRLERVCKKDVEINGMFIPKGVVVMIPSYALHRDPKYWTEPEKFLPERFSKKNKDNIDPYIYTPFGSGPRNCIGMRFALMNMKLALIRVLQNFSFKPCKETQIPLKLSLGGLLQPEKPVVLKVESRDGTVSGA
T1 sequence (P10635 whole entry): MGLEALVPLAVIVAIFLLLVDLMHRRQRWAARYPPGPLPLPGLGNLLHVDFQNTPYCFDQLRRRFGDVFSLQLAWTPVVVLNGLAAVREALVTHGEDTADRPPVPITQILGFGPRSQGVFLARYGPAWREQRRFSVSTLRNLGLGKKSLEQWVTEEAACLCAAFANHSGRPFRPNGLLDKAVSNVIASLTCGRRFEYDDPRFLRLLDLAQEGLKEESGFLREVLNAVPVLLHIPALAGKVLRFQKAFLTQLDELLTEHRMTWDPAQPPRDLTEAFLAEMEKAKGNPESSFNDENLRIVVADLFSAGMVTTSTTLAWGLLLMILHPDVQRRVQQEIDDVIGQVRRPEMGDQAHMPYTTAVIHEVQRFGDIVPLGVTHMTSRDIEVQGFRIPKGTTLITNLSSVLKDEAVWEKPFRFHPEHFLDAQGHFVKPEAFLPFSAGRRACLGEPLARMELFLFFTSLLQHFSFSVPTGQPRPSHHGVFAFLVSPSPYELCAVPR

SMILES | inhibition of CYP2D6 (in words) (CYP2D6 [1]) | IC50 (CYP3A4) | Ki (CYP3A4) | inhibition of CYP3A4 (in words) (CYP3A4; HLM, as compared to ketoconazole) | IC50 (CYP2D6 [2]) | Ki (CYP2D6 [2]) | Ki (CYP2C8) | inhibition of CYP2C8 (in words) (CYP2C8; HLM, remdesivir as compared to rosiglitazone) | IC50 (CYP2C8; remdesivir) | IC50 (CYP2C8; positive control)
CCC(CC)COC(=O)[C@H](C)N[P@](=O)(OC[C@H]1O[C@@](C#N)(c2ccc3c(N)ncnn23)[C@H](O)[C@@H]1O)Oc1ccccc1 [Remdesivir, remdesivir] | weak inhibition | 483 nM | 241 nM | moderate/weak inhibition | 543 nM | 271 nM | 134 nM | weak inhibition | 268 nM | 
CN(CCOc1ccc(CC2SC(=O)NC2=O)cc1)c1ccccn1 (centres unmarked) [Rosiglitazone, rosiglitazone] |  |  |  |  |  |  | 1600 nM |  |  | 3280 nM
